Source: patent publication US20090294381A1, “METHODS FOR CONTROLLING PH IN WATER SANITIZED BY CHEMICAL OR ELECTROLYTIC CHLORINATION” (ZODIAC POOL CARE, INC., priority 2005, published 2009)
Like-named read-outs stand apart in the source and are kept apart here.

How the values were obtained:
[1] = cited from earlier work
[2] = system: Chlorella vulgaris; test: Algae growth in nutrient medium, serial dilution tubes, visual bottom pellicle formation; type: cell-based; parameters: key: +++ indicates good growth; ++ indicates scant growth; + indicates very low growth; − indicates no growth
Method: An algae nutrient medium was prepared by mixing the following with 940 mL deionized (DI) water:
Primary stocks were made by including each of the test compounds in the table below in DI as 100 mL aliquots of 1000 ppm solutions. Working stocks in algae media were made as 128 ppm solutions (13 mL/100 mL DI). These solutions were serially diluted and placed into disposable borosilicate tubes, each containing 5 mL of algae medium. The highest theoretical concentration of each compound tested was 64 ppm; as a result of the serial dilution, concentrations of 32, 16, 8, 4, 2, 1, 0.5, and 0.25 ppm were tested. Each tube as inoculated with 50 μL of 10-12 day old Chlorella vulgaris, having an approximate density of 3.0×10^5 cells/mL. Growth was evaluated in a semi-quantitative fashion by visually observing bottom pellicle formation, which was compared to 2 controls. In the table below, +++ indicates good growth, ++ indicates scant growth, + indicates very low growth, and − indicates no growth.

[3] = Phosphate removal and turbidity in 250 gallon mini-pool
Method: A 250 gallon mini-pool was filled with tap water and balanced with calcium chloride, sodium bicarbonate, sodium bisulfate, and sodium hypochlorite. Sufficient sodium phosphate was added to the pool to give a phosphate concentration of approximately 1.0 ppm (calculated as ortho-phosphate). While mixing, lanthanum chloride was added to the water, where it combined with the phosphate and caused formation of a precipitate. The amount of lanthanum chloride added was sufficient to reduce phosphate concentration to less than 100 ppb. The water was allowed to mix (via stirring) for 15 minutes. […] Samples were taken at intervals during the study, and analyzed for turbidity, phosphate level, and lanthanum level, and in some cases, for pH and total alkalinity. […]
A 250 gallon mini-pool was filled with tap water and balanced with calcium chloride, sodium bicarbonate, sodium bisulfate, and sodium hypochlorite. Sufficient sodium phosphate was added to the pool to give a phosphate concentration of approximately 1.0 ppm (calculated as ortho-phosphate). […] Samples were taken at intervals during the study, and analyzed for turbidity, phosphate level, and zinc level, and in some cases, for pH and total alkalinity. […]

[4] = Phosphate removal in full sized swimming pools via Nature2 G cartridge; settings: Example 6: 7 pools, 15,000 to 27,000 gallons, about 1.0 ppm phosphate, 900 grams per cartridge
Source text: Sufficient sodium phosphate was broadcast to water in 7 full sized swimming pools, ranging in size from 15,000 to 27,000 gallons, to give a phosphate concentration of about 1.0 ppm (calculated as ortho-phosphate). The pools were allowed to mix for at least one hour. A Nature^2 G sized cartridge containing 900 grams of lanthanum chloride was connected to each pool water circulation system, and pumping through the cartridge was initiated, delivering lanthanum to the water. Water samples were taken at intervals and analyzed to determine turbidity, phosphate levels, and lanthanum levels, and in some cases, pH and total alkalinity. Six of the pools had surface cleaners in constant use and the remaining pool used a pool service. Each of the pools was filtered using a pleated cartridge filter. Turbidity of 6 of the 7 pools returned to starting levels (before lanthanum was added to precipitate out the phosphate) after 48 hours. A minimum of 90% of phosphate was removed from each of the pools.

[OH][Al]([OH])[OH] [Al(OH)3]
log Ksp ([1]; metal hydroxides): −32.7

[Ce+4].[OH-].[OH-].[OH-].[OH-] [Ce(OH)4]
log Ksp ([1]; metal hydroxides): −47.7

Zinc borate
Growth of Chlorella vulgaris (bottom pellicle formation) ([2]; 0.25 ppm test compound): + | Growth of Chlorella vulgaris (bottom pellicle formation) ([2]; 0.5 ppm test compound): + | Growth of Chlorella vulgaris (bottom pellicle formation) ([2]; 1 ppm test compound): − | Growth of Chlorella vulgaris (bottom pellicle formation) ([2]; 2 ppm test compound): − | Growth of Chlorella vulgaris (bottom pellicle formation) ([2]; 4 ppm test compound): − | Growth of Chlorella vulgaris (bottom pellicle formation) ([2]; 8 ppm test compound): − | Growth of Chlorella vulgaris (bottom pellicle formation) ([2]; 16 ppm test compound): − | Growth of Chlorella vulgaris (bottom pellicle formation) ([2]; 32 ppm test compound): − | Growth of Chlorella vulgaris (bottom pellicle formation) ([2]; 64 ppm test compound): −

O=P([O-])([O-])[O-].O=P([O-])([O-])[O-].[Cu+2].[Cu+2].[Cu+2] [Cu3(PO4)2]
log Ksp ([1]; metal phosphates): −36.9

[Cl][La]([Cl])[Cl] [lanthanum chloride]
Turbidity reduction ([3]; Example 5: within two hours of beginning filtration (diatomaceous earth)): 97% | phosphate removed [4]: ≥ 90%

[OH-].[OH-].[Zn+2] [Zn(OH)2]
log Ksp ([1]; metal hydroxides): −16.5

O=P([O-])([O-])[O-].[Al+3] [AlPO4]
log Ksp ([1]; metal phosphates): −20.0

O=P([O-])([O-])[O-].[La+3] [LaPO4]
log Ksp ([1]; metal phosphates): −25.7

[Cu+2].[OH-].[OH-] [Cu(OH)2]
log Ksp ([1]; metal hydroxides): −19.3

O=P([O-])([O-])[O-].O=P([O-])([O-])[O-].[Zn+2].[Zn+2].[Zn+2] [Zn3(PO4)2]
log Ksp ([1]; metal phosphates): −35.3

[OH][Sn][OH] [Sn(OH)2]
log Ksp ([1]; metal hydroxides): −26.5

CCCCCCCCCCCCN.Cl [Dodecylamine HCl]
Growth of Chlorella vulgaris (bottom pellicle formation) ([2]; 0.25 ppm test compound): − | Growth of Chlorella vulgaris (bottom pellicle formation) ([2]; 0.5 ppm test compound): − | Growth of Chlorella vulgaris (bottom pellicle formation) ([2]; 1 ppm test compound): − | Growth of Chlorella vulgaris (bottom pellicle formation) ([2]; 2 ppm test compound): − | Growth of Chlorella vulgaris (bottom pellicle formation) ([2]; 4 ppm test compound): − | Growth of Chlorella vulgaris (bottom pellicle formation) ([2]; 8 ppm test compound): − | Growth of Chlorella vulgaris (bottom pellicle formation) ([2]; 16 ppm test compound): − | Growth of Chlorella vulgaris (bottom pellicle formation) ([2]; 32 ppm test compound): − | Growth of Chlorella vulgaris (bottom pellicle formation) ([2]; 64 ppm test compound): −

[Ce+3].[OH-].[OH-].[OH-] [Ce(OH)3]
log Ksp ([1]; metal hydroxides): −22.3

O=P([O-])([O-])[O-].[Ce+3] [CePO4]
log Ksp ([1]; metal phosphates): −26.2

O=S(=O)([O-])[O-].[Cu+2] [CuSO4]
Growth of Chlorella vulgaris (bottom pellicle formation) ([2]; 0.25 ppm test compound): ++ | Growth of Chlorella vulgaris (bottom pellicle formation) ([2]; 0.5 ppm test compound): ++ | Growth of Chlorella vulgaris (bottom pellicle formation) ([2]; 1 ppm test compound): + | Growth of Chlorella vulgaris (bottom pellicle formation) ([2]; 2 ppm test compound): − | Growth of Chlorella vulgaris (bottom pellicle formation) ([2]; 4 ppm test compound): − | Growth of Chlorella vulgaris (bottom pellicle formation) ([2]; 8 ppm test compound): − | Growth of Chlorella vulgaris (bottom pellicle formation) ([2]; 16 ppm test compound): − | Growth of Chlorella vulgaris (bottom pellicle formation) ([2]; 32 ppm test compound): − | Growth of Chlorella vulgaris (bottom pellicle formation) ([2]; 64 ppm test compound): −

[Cl-].[Cl-].[Zn+2] [zinc chloride]
phosphate reduction ([3]; Example 7: start approx. 1.0 ppm phosphate, within 3 hours, sand filtration): more than 90%

[La+3].[OH-].[OH-].[OH-] [La(OH)3]
log Ksp ([1]; metal hydroxides): −18.5
